{"source": "PubChem BioAssay (NCI)", "test_in_all_cases": "NCI anticancer screen, dose series, 48 h", "key": {"NCI-H226 lung": {"system": "NCI-H226 lung"}, "OVCAR-4 ovarian": {"system": "OVCAR-4 ovarian"}, "K-562 leukemia": {"system": "K-562 leukemia"}, "MDA-MB-231 breast": {"system": "MDA-MB-231 breast"}, "SK-MEL-2 melanoma": {"system": "SK-MEL-2 melanoma"}, "NCI-H522 lung": {"system": "NCI-H522 lung"}, "COLO 205 colon": {"system": "COLO 205 colon"}, "LOX IMVI melanoma": {"system": "LOX IMVI melanoma"}, "TK-10 renal": {"system": "TK-10 renal"}, "786-0 renal": {"system": "786-0 renal"}, "HOP-62 NSCLC": {"system": "HOP-62 NSCLC"}, "SK-OV-3 ovarian": {"system": "SK-OV-3 ovarian"}, "A498 renal": {"system": "A498 renal"}, "ACHN renal": {"system": "ACHN renal"}, "PC-3 prostate": {"system": "PC-3 prostate"}, "MCF7 breast": {"system": "MCF7 breast"}, "UACC-62 melanoma": {"system": "UACC-62 melanoma"}, "HCT-116 colon": {"system": "HCT-116 colon"}, "SN12C renal": {"system": "SN12C renal"}, "SF-295 CNS": {"system": "SF-295 CNS"}, "CAKI-1 renal": {"system": "CAKI-1 renal"}, "SW-620 colon": {"system": "SW-620 colon"}, "SNB-75 CNS": {"system": "SNB-75 CNS"}, "MALME-3M melanoma": {"system": "MALME-3M melanoma"}, "M14 melanoma": {"system": "M14 melanoma"}, "MDA-N": {"system": "MDA-N"}, "OVCAR-3 ovarian": {"system": "OVCAR-3 ovarian"}, "KM12 colon": {"system": "KM12 colon"}, "RPMI-8226 leukemia": {"system": "RPMI-8226 leukemia"}, "A549 NSCLC": {"system": "A549 NSCLC"}, "DU-145 prostate": {"system": "DU-145 prostate"}, "SF-539 CNS": {"system": "SF-539 CNS"}, "HCC-2998 colon": {"system": "HCC-2998 colon"}, "CCRF-CEM leukemia": {"system": "CCRF-CEM leukemia"}, "SK-MEL-28 melanoma": {"system": "SK-MEL-28 melanoma"}, "U251 CNS": {"system": "U251 CNS"}, "UO-31 renal": {"system": "UO-31 renal"}, "NCI-H460 lung": {"system": "NCI-H460 lung"}, "NCI-H23 lung": {"system": "NCI-H23 lung"}, "OVCAR-5 ovarian": {"system": "OVCAR-5 ovarian"}, "HT29 colon": {"system": "HT29 colon"}, "SK-MEL-5 melanoma": {"system": "SK-MEL-5 melanoma"}, "IGROV1 ovarian": {"system": "IGROV1 ovarian"}, "MDA-MB-435": {"system": "MDA-MB-435"}, "SF-268 CNS": {"system": "SF-268 CNS"}, "HL-60(TB) leukemia": {"system": "HL-60(TB) leukemia"}, "NCI/ADR-RES ovarian": {"system": "NCI/ADR-RES ovarian"}, "HCT-15 colon": {"system": "HCT-15 colon"}, "UACC-257 melanoma": {"system": "UACC-257 melanoma"}, "MOLT-4 leukemia": {"system": "MOLT-4 leukemia"}, "RXF 393 renal": {"system": "RXF 393 renal"}}, "note": "Values joined by “and” are separate entries in the source; they are usually repeats but may differ in a detail not shown here. Identical values can stand only once.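 These data come from cells grown in 96-well plates and exposed to compound for 48 hours at five concentrations. GI50 marks 50% less growth. At the TGI there is no net growth.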"}
{"compound": "Cc1nn(-c2ccccc2)c2c1CC(=O)Nc1ccccc1-2", "values": [{"measurement": "GI50", "setting": "NCI-H226 lung", "value": 465, "unit": "nM"}, {"measurement": "TGI", "setting": "NCI-H226 lung", "value": "> 100000", "unit": "nM"}, {"measurement": "TGI", "setting": "OVCAR-4 ovarian", "value": "> 100000", "unit": "nM"}, {"measurement": "GI50", "setting": "K-562 leukemia", "value": 44, "unit": "nM"}, {"measurement": "TGI", "setting": "K-562 leukemia", "value": 721, "unit": "nM"}, {"measurement": "GI50", "setting": "MDA-MB-231 breast", "value": 578, "unit": "nM"}, {"measurement": "TGI", "setting": "MDA-MB-231 breast", "value": "> 100000", "unit": "nM"}, {"measurement": "GI50", "setting": "SK-MEL-2 melanoma", "value": 387, "unit": "nM"}, {"measurement": "TGI", "setting": "SK-MEL-2 melanoma", "value": "> 100000", "unit": "nM"}, {"measurement": "GI50", "setting": "NCI-H522 lung", "value": 170, "unit": "nM"}, {"measurement": "TGI", "setting": "NCI-H522 lung", "value": "3750 nM and 593 nM"}, {"measurement": "GI50", "setting": "COLO 205 colon", "value": 318, "unit": "nM"}, {"measurement": "TGI", "setting": "COLO 205 colon", "value": "4840 nM and 1990 nM"}, {"measurement": "GI50", "setting": "LOX IMVI melanoma", "value": 431, "unit": "nM"}, {"measurement": "TGI", "setting": "LOX IMVI melanoma", "value": "> 100000", "unit": "nM"}, {"measurement": "TGI", "setting": "TK-10 renal", "value": 92200, "unit": "nM"}, {"measurement": "GI50", "setting": "786-0 renal", "value": 570, "unit": "nM"}, {"measurement": "TGI", "setting": "786-0 renal", "value": "> 100000", "unit": "nM"}, {"measurement": "GI50", "setting": "HOP-62 NSCLC", "value": 384, "unit": "nM"}, {"measurement": "TGI", "setting": "HOP-62 NSCLC", "value": "> 100000", "unit": "nM"}, {"measurement": "GI50", "setting": "SK-OV-3 ovarian", "value": 332, "unit": "nM"}, {"measurement": "TGI", "setting": "SK-OV-3 ovarian", "value": 43800, "unit": "nM"}, {"measurement": "GI50", "setting": "A498 renal", "value": 27, "unit": "nM"}, {"measurement": "GI50", "setting": "ACHN renal", "value": 840, "unit": "nM"}, {"measurement": "TGI", "setting": "ACHN renal", "value": "> 100000", "unit": "nM"}, {"measurement": "GI50", "setting": "PC-3 prostate", "value": 279, "unit": "nM"}, {"measurement": "GI50", "setting": "MCF7 breast", "value": 78.8, "unit": "nM"}, {"measurement": "TGI", "setting": "MCF7 breast", "value": "> 100000", "unit": "nM"}, {"measurement": "GI50", "setting": "UACC-62 melanoma", "value": 158, "unit": "nM"}, {"measurement": "TGI", "setting": "UACC-62 melanoma", "value": 73400, "unit": "nM"}, {"measurement": "GI50", "setting": "HCT-116 colon", "value": 322, "unit": "nM"}, {"measurement": "TGI", "setting": "SN12C renal", "value": "> 100000", "unit": "nM"}, {"measurement": "TGI", "setting": "SF-295 CNS", "value": 3060, "unit": "nM"}, {"measurement": "GI50", "setting": "CAKI-1 renal", "value": 346, "unit": "nM"}, {"measurement": "TGI", "setting": "CAKI-1 renal", "value": "> 100000", "unit": "nM"}, {"measurement": "GI50", "setting": "SW-620 colon", "value": 152, "unit": "nM"}, {"measurement": "TGI", "setting": "SW-620 colon", "value": "> 100000", "unit": "nM"}, {"measurement": "GI50", "setting": "SNB-75 CNS", "value": 210, "unit": "nM"}, {"measurement": "GI50", "setting": "MALME-3M melanoma", "value": "432 nM and 87.2 nM"}, {"measurement": "TGI", "setting": "MALME-3M melanoma", "value": "> 100000", "unit": "nM"}, {"measurement": "GI50", "setting": "M14 melanoma", "value": 188, "unit": "nM"}, {"measurement": "TGI", "setting": "M14 melanoma", "value": "> 100000", "unit": "nM"}, {"measurement": "TGI", "setting": "MDA-N", "value": 470, "unit": "nM"}, {"measurement": "GI50", "setting": "OVCAR-3 ovarian", "value": 80.5, "unit": "nM"}, {"measurement": "TGI", "setting": "OVCAR-3 ovarian", "value": "2920 nM and 552 nM"}, {"measurement": "GI50", "setting": "KM12 colon", "value": 88.8, "unit": "nM"}, {"measurement": "TGI", "setting": "KM12 colon", "value": "> 100000", "unit": "nM"}, {"measurement": "GI50", "setting": "RPMI-8226 leukemia", "value": 82.6, "unit": "nM"}, {"measurement": "TGI", "setting": "RPMI-8226 leukemia", "value": 456, "unit": "nM"}, {"measurement": "GI50", "setting": "A549 NSCLC", "value": 764, "unit": "nM"}, {"measurement": "TGI", "setting": "A549 NSCLC", "value": "> 100000", "unit": "nM"}, {"measurement": "GI50", "setting": "DU-145 prostate", "value": 355, "unit": "nM"}, {"measurement": "TGI", "setting": "DU-145 prostate", "value": "> 100000", "unit": "nM"}, {"measurement": "GI50", "setting": "SF-539 CNS", "value": 173, "unit": "nM"}, {"measurement": "TGI", "setting": "SF-539 CNS", "value": "7800 nM and 855 nM"}, {"measurement": "GI50", "setting": "HCC-2998 colon", "value": "624 nM and 222 nM"}, {"measurement": "TGI", "setting": "HCC-2998 colon", "value": "7540 nM and 2490 nM"}, {"measurement": "GI50", "setting": "CCRF-CEM leukemia", "value": 112, "unit": "nM"}, {"measurement": "GI50", "setting": "SK-MEL-28 melanoma", "value": 357, "unit": "nM"}, {"measurement": "TGI", "setting": "SK-MEL-28 melanoma", "value": "> 100000", "unit": "nM"}, {"measurement": "GI50", "setting": "U251 CNS", "value": 282, "unit": "nM"}, {"measurement": "TGI", "setting": "U251 CNS", "value": "> 100000", "unit": "nM"}, {"measurement": "GI50", "setting": "UO-31 renal", "value": 1110, "unit": "nM"}, {"measurement": "TGI", "setting": "UO-31 renal", "value": "> 100000", "unit": "nM"}, {"measurement": "GI50", "setting": "NCI-H460 lung", "value": 381, "unit": "nM"}, {"measurement": "TGI", "setting": "NCI-H460 lung", "value": "> 100000", "unit": "nM"}, {"measurement": "GI50", "setting": "NCI-H23 lung", "value": 357, "unit": "nM"}, {"measurement": "TGI", "setting": "NCI-H23 lung", "value": "> 100000", "unit": "nM"}, {"measurement": "TGI", "setting": "OVCAR-5 ovarian", "value": "> 100000", "unit": "nM"}, {"measurement": "GI50", "setting": "HT29 colon", "value": 90.6, "unit": "nM"}, {"measurement": "GI50", "setting": "SK-MEL-5 melanoma", "value": 87.9, "unit": "nM"}, {"measurement": "TGI", "setting": "SK-MEL-5 melanoma", "value": 45200, "unit": "nM"}, {"measurement": "GI50", "setting": "IGROV1 ovarian", "value": 397, "unit": "nM"}, {"measurement": "TGI", "setting": "IGROV1 ovarian", "value": "> 100000", "unit": "nM"}, {"measurement": "TGI", "setting": "MDA-MB-435", "value": 602, "unit": "nM"}, {"measurement": "GI50", "setting": "SF-268 CNS", "value": 623, "unit": "nM"}, {"measurement": "TGI", "setting": "SF-268 CNS", "value": "> 100000", "unit": "nM"}, {"measurement": "GI50", "setting": "HL-60(TB) leukemia", "value": 20.3, "unit": "nM"}, {"measurement": "TGI", "setting": "NCI/ADR-RES ovarian", "value": 3730, "unit": "nM"}, {"measurement": "GI50", "setting": "HCT-15 colon", "value": 145, "unit": "nM"}, {"measurement": "TGI", "setting": "HCT-15 colon", "value": "> 100000", "unit": "nM"}, {"measurement": "GI50", "setting": "UACC-257 melanoma", "value": 273, "unit": "nM"}, {"measurement": "TGI", "setting": "UACC-257 melanoma", "value": "> 100000", "unit": "nM"}, {"measurement": "GI50", "setting": "MOLT-4 leukemia", "value": 84.3, "unit": "nM"}, {"measurement": "TGI", "setting": "MOLT-4 leukemia", "value": "9190 nM and 1990 nM"}, {"measurement": "TGI", "setting": "RXF 393 renal", "value": 5850, "unit": "nM"}]}
